{"source": "patent US8865733B2", "about": "“Medication and treatment for disease” (Altman Enterprises, LLC, priority 2008, dated 2014)", "key": {"MS patients [1]": {"system": "MS patients", "assay": "Treatment of individual MS patients with the medication (case reports, Patients A, B, C)", "assay_type": "in vivo, human", "conditions": "Patient C; low dose naltrexone 3 mg daily before the medication", "text": "Diagnosis was confirmed by an MRI of their brain, lumbar puncture, and visual evolved response."}, "MS patients [2]": {"system": "MS patients", "conditions": "LDN alone; cited from earlier work"}}}
{"smiles": "O=C1CC[C@@]2(O)[C@H]3Cc4ccc(O)c5c4[C@@]2(CCN3CC2CC2)[C@H]1O5", "note": "[low dose naltrexone, naltrexone]", "values": [{"measurement": "improvement under earlier treatment", "setting": "MS patients [1]", "value": "no improvement"}, {"measurement": "improvement of physical ability", "setting": "MS patients [2]", "value": "no improvement of physical ability"}]}
